Patent publication US20260256143A1, “HERBICIDAL COMPOSITION AND METHOD FOR CONTROLLING WEEDS” (Enko Chem, Inc., priority 2023, published 2026)
Read-outs that look alike come from different tables or passages of the source.

Experiments:
ECHCG [1] = assay: Greenhouse post-emergence foliar test (Example 72); format: in vivo; details: Echinochloa crus-galli, 336 h, read-out: % Visual growth inhibition (ECHCG)
Description: (§1) Compound 1 was tested at several doses for foliar weed control efficacy by itself or in combination with other herbicides.
(§2) The weed seeds were sown in 10″×20″ trays and propagated up to the transplanting stage which is 1-2 emerging leaves. One plant was then transplanted into 7×7×8 cm pots and sprayed with the compounds when plants reached the 3-4 true leaf stage for grass species or 10-15 cm for broadleaf species. The plants were propagated in a greenhouse with 26-28° C. day, 20-22° C. night temperature at 50-60%0 relative humidity and supplemental light using high pressure sodium grow lights when necessary. Three weeks after sowing, plants were sprayed with the test compound solution in a laboratory spray chamber fitted with 8003 even fan nozzle calibrated to deliver 187 L ha^−1 at 269 kPa. All treatments included the following inert ingredients in the final formulation; […] (AGRI-DEX®, Helena Agri), 2.5% Ammonium sulphate (w/v), and 0.1% Tween-20 (v/v). Plants were evaluated for percentage visual growth inhibition compared to treated control, 14 days after treatment (DAT).

AMATU [2] = assay: Greenhouse post-emergence foliar test (Example 72); format: in vivo, Amaranthus rudis; details: Amaranthus tuberculatus, 336 h, read-out: % Visual growth inhibition (AMATU)
Description: as §1, §2

ECHCG [3] = assay: Greenhouse pre-emergence residual test (Example 73); format: in vivo, Echinochloa crus-galli; details: 17-21 DAT
Description: (§3) Compound 1 was tested at several doses for residual weed control efficacy by itself or in combination as a tank mix with commercial herbicides. The following commercial products were used in tank mix with a 10% active emulsifiable concentrate formulation of Compound 1: S-metolachlor (Dual Magnum®, Syngenta), mesotrione (Callisto®, Syngenta), pyroxasulfone (Zidua® SC, BASF), metribuzin (Tricor DF™, United Phosphorus, Inc).
(§4) Accordingly, weed seeds were planted in 2-inch pots containing custom field soil mix (sandy loam with 3.3% organic matter, pH 7.0) and covered with a fine layer of the same soil. Three replicate pots were treated with each compound. Treatment consisting of the above formulation excluding active compound was applied as a treatment control (TC). Pots were treated with the test compound solution in a laboratory spray chamber fitted with 8003 even fan nozzles calibrated to deliver 187-200 L ha^−1 at 269 kPa. All treatments included the following inert ingredients in the final formulation; 1% Crop Oil Concentrate (v/v) (AGRI-DEX, Helena Agri) and 2.5% Ammonium sulphate (w/v). Compound 1 was incorporated into the soil by simulating rainfall equivalent to 0.2 mm using the same track sprayer. Subsequently, pots were irrigated from the bottom until weed control evaluation. Pots were placed back in the greenhouse and evaluated for percentage visual growth and germination inhibition compared to TC 17-21 days after treatment (DAT). Complete growth inhibition is represented by 100%.

AMAPA [4] = assay: as above; format: in vivo, Amaranthus palmeri; details: 17-21 DAT
Description: as §3, §4

DIGSA = assay: as above; format: in vivo, Digitaria sanguinalis; details: 17-21 DAT
Description: as §3, §4

KCHSC = assay: as above; format: in vivo, Bassia scoparia; details: 17-21 DAT
Description: as §3, §4

CHEAL [5] = assay: as above; format: in vivo, Chenopodium album; details: 17-21 DAT
Description: as §3, §4

ALOMY = assay: as above; format: in vivo, Alopecurus myosuroides; details: 17-21 DAT
Description: as §3, §4

AMATU [6] = assay: as above; format: in vivo, Amaranthus rudis; details: 17-21 DAT
Description: as §3, §4

ABUTH = assay: Field test, post-emergence foliar application (Example 70); format: in vivo, Abutilon theophrasti; details: Loc 13; glyphosate 1120 g a.i./ha; 2 weeks after application
Description: (§5) Compound 1 and Compound 1 mixed with glyphosate were tested at different field locations to evaluate the herbicides efficacy for controlling weeds by post-emergence foliar application. All herbicide treatments were applied with a backpack CO2 pressurized sprayer at 190 L/ha volume. The applications were made after the weeds emerged and reached the 5 to 12 cm size range. Herbicide treatments included Compound 1 formulated as 10% emulsified concentrate, glyphosate as a commercial formulation (Roundup Power Max, Monsanto), or a mixture of Compound 1 and glyphosate products prepared as a “tank-mix” before the field application. All herbicide field spray solution included ammonium sulfate and concentrated crop oil adjuvant to a final solution concentration of 2% and 1% respectively. Different weeds species were assessed at the separate field locations. For each species, the herbicide efficacy to control weeds, assessed as % of dead plants relative to the untreated control plots, was evaluated at 2 weeks after the herbicide application to account for weed re-growth.

AMATU [7] = assay: as above; format: in vivo, Amaranthus rudis; details: glyphosate 1120 g a.i./ha, 2 weeks after application
Description: as §5

SETFA = assay: as above; format: in vivo, Setaria faberi; details: Loc 15; glyphosate 1120 g a.i./ha; 2 weeks after application
Description: as §5

CHEAL [8] = assay: as above; format: in vivo, Chenopodium album; details: glyphosate 1120 g a.i./ha, 2 weeks after application
Description: as §5

AMAPA [9] = assay: as above; format: in vivo, Amaranthus palmeri; details: Loc 13; glyphosate 1120 g a.i./ha; 2 weeks after application
Description: as §5

With `O=C(O)COc1ccc(Cl)cc1Cl` [2,4-D acid, 2,4-dichlorophenoxyacetic acid] the inhibition at 280 g/ha (ECHCG [1]) was 10% and the inhibition at 280 g/ha (AMATU [2]) was 89%.
In the case of `CCc1cccc(C)c1N(C(=O)CCl)[C@@H](C)COC` [S-metolachlor], the “Pre-emergence percent weed growth and germination inhibition ECHCG” value (ECHCG [3]; Dose 1000 g a.i./ha) is reported as 93%, the “Pre-emergence percent weed growth and germination inhibition AMAPA” value (AMAPA [4]; Dose 1000 g a.i./ha) is reported as 65% and the “Pre-emergence percent weed growth and germination inhibition DIGSA” value (DIGSA; Dose 1000 g a.i./ha) is reported as 80%. For the same compound, the “Pre-emergence percent weed growth and germination inhibition KCHSC” value (KCHSC; Dose 1000 g a.i./ha) was 57%, the “Pre-emergence percent weed growth and germination inhibition CHEAL” value (CHEAL [5]; Dose 1000 g a.i./ha) was 50% and the “Pre-emergence percent weed growth and germination inhibition ALOMY” value (ALOMY; Dose 1000 g a.i./ha) was 30%. The “Pre-emergence percent weed growth and germination inhibition AMATU” value (AMATU [6]; Dose 1000 g a.i./ha) was 80%.
`COc1c(Cl)ccc(Cl)c1C(=O)O` [dicamba, 3,6-dichloro-2-methoxybenzoic acid] showed an inhibition at 280 g/ha (ECHCG [1]; Dose 280 g a.i./ha, 14 DAT) of 5% and an inhibition at 280 g/ha (AMATU [2]; Dose 280 g a.i./ha, 14 DAT) of 74%.
For `CP(=O)(O)CCC(N)C(=O)O` (stereo not shown) [glufosinate], the inhibition at 450 g/ha (ECHCG [1]) was 41% and the inhibition at 450 g/ha (AMATU [2]) was 96%.
In the case of `O=C(O)CNCP(=O)(O)O` [glyphosate], the “% dead ABUTH” value (ABUTH) is reported as 85%, the “% dead AMATU” value (AMATU [7]; Loc 11) is reported as 88% and the “% dead AMATU” value (AMATU [7]; Loc 12) is reported as 50%. For the same compound, the “% dead AMATU” value (AMATU [7]; Loc 14) was 32%, the “% dead AMATU” value (AMATU [7]; Loc 15) was 12% and the “% dead SETFA” value (SETFA) was 100%. The “% dead CHEAL” value (CHEAL [8]; Loc 11) was 88%, the “% dead CHEAL” value (CHEAL [8]; Loc 14) was 88% and the inhibition at 860 g/ha (ECHCG [1]) was 84%. The “% dead AMAPA” value (AMAPA [9]) was 13% and the inhibition at 1000 g/ha (AMATU [2]) was 60%.
`CS(=O)(=O)c1ccc(C(=O)C2C(=O)CCCC2=O)c([N+](=O)[O-])c1` [mesotrione] gave an inhibition at 210 g/ha (ECHCG [3]; Echinochloa crus-galli, pre-emergence, Dose 210 g a.i./ha, read-out: Pre-emergence percent weed growth and germination inhibition ECHCG) of 33%, an inhibition at 105 g/ha (ECHCG [1]; Dose 105 g a.i./ha, 14 DAT) of 95% and an inhibition at 210 g/ha (AMAPA [4]; Amaranthus palmeri, pre-emergence, Dose 210 g a.i./ha, read-out: Pre-emergence percent weed growth and germination inhibition AMAPA) of 53%. For the same compound, the inhibition at 210 g/ha (DIGSA; Digitaria sanguinalis, pre-emergence, Dose 210 g a.i./ha, read-out: Pre-emergence percent weed growth and germination inhibition DIGSA) was 82%, the inhibition at 210 g/ha (KCHSC; Bassia scoparia, pre-emergence, Dose 210 g a.i./ha, read-out: Pre-emergence percent weed growth and germination inhibition KCHSC) was 77% and the inhibition at 105 g/ha (AMATU [2]; Dose 105 g a.i./ha, 14 DAT) was 61%. It also gave an inhibition at 210 g/ha (CHEAL [5]; Chenopodium album, pre-emergence, Dose 210 g a.i./ha, read-out: Pre-emergence percent weed growth and germination inhibition CHEAL) of 100%, an inhibition at 210 g/ha (ALOMY; Alopecurus myosuroides, pre-emergence, Dose 210 g a.i./ha, read-out: Pre-emergence percent weed growth and germination inhibition ALOMY) of 20% and an inhibition at 210 g/ha (AMATU [6]; Amaranthus tuberculatus, pre-emergence, Dose 210 g a.i./ha, read-out: Pre-emergence percent weed growth and germination inhibition AMATU) of 75%.
With `CSc1nnc(C(C)(C)C)c(=O)n1N` [metribuzin] the inhibition at 200 g/ha (ECHCG [3]; Echinochloa crus-galli, pre-emergence, Dose 200 g a.i./ha, read-out: Pre-emergence percent weed growth and germination inhibition ECHCG) was 12%, the inhibition at 200 g/ha (AMAPA [4]; Amaranthus palmeri, pre-emergence, Dose 200 g a.i./ha, read-out: Pre-emergence percent weed growth and germination inhibition AMAPA) was 20% and the inhibition at 200 g/ha (DIGSA; Digitaria sanguinalis, pre-emergence, Dose 200 g a.i./ha, read-out: Pre-emergence percent weed growth and germination inhibition DIGSA) was 13%. For the same compound, the inhibition at 200 g/ha (KCHSC; Bassia scoparia, pre-emergence, Dose 200 g a.i./ha, read-out: Pre-emergence percent weed growth and germination inhibition KCHSC) was 100%, the inhibition at 200 g/ha (CHEAL [5]; Chenopodium album, pre-emergence, Dose 200 g a.i./ha, read-out: Pre-emergence percent weed growth and germination inhibition CHEAL) was 100% and the inhibition at 200 g/ha (ALOMY; Alopecurus myosuroides, pre-emergence, Dose 200 g a.i./ha, read-out: Pre-emergence percent weed growth and germination inhibition ALOMY) was 12%. The inhibition at 200 g/ha (AMATU [6]; Amaranthus tuberculatus, pre-emergence, Dose 200 g a.i./ha, read-out: Pre-emergence percent weed growth and germination inhibition AMATU) was 65%.
